Test results taken from PubChem BioAssay AID179 (DTP/NCI, 2004).
Calls of active or inactive are those of the source.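 The calls were made as follows: active = compounds giving half or more protection of infected cells from virus-caused growth loss, again on retest; inactive = the rest.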 Where a SMILES comes first, the peptide text is derived from it. The star is where a group is joined. Cbz = O=C(OCc1ccccc1)*; OBn = c1ccc(CO*)cc1

Tested on: CEM cells HIV-1 protection, formazan growth assay
Assay: NCI AIDS Antiviral Assay
Conditions: for IC50: measured here: growth of uninfected CEM cells
Procedure, shortened: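 Protection of CEM cells against HIV-1 was scored from cell growth (soluble formazan) across five concentrations, with parallel uninfected cells. Lack of protection may reflect toxicity.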

SMILES | EC50 [µM] | IC50 [µM] | outcome
Clc1ccccc1C=NCC1CCC(CN=Cc2ccccc2Cl)CC1 (stereo not drawn) | > 200 | 9.12 | –
c1cncc(CSc2nc3ccccc3nc2-c2cccs2)c1 | > 1.55 | > 1.55 | –
CCCCCCCCCC1CC(=O)OC2=C1C(=O)CCC2 (stereo not drawn) | > 46.8 | > 46.8 | –
COC(=O)CNC(=O)C(C)NC(=O)C(CC(=O)OCc1ccccc1)NC(=O)OCc1ccccc1 (stereo not drawn) (Cbz-Asp(OBn)-Ala-Gly-OMe; configuration not given here) | > 200 | 107 | –
COc1ccc(C2OCC3OC(n4cc(C)c(=O)[nH]c4=O)CC3N2O)cc1 (stereo not drawn) | > 200 | > 200 | –
O=[As](O)(O)c1ccc(Nc2nc(Cl)nc(Cl)n2)cc1 | > 200 | > 200 | –
CN(C)CCOc1cccc(OCCN(C)C)n1 | > 200 | > 200 | –
CO[C@](C(=O)OC[C@H]1[C@@H](COC(C)=O)[C@@H]2O[C@H]1c1cc3c(cc12)OCO3)(c1ccccc1)C(F)(F)F | > 200 | 7.59 | –
COC1CN(C)C(=Nc2cccc3ccccc23)S1 (stereo not drawn) | > 200 | 112 | –
CC1OC(O[C@H]2C3C=CO[C@@H](OC4OC(CO)C(O)C(O)C4O)C3[C@@]3(COC(=O)/C=C/c4ccccc4)O[C@@H]23)C(O)C(O)C1O (stereo partly drawn) | > 200 | > 200 | –
CCCCCCNC(=O)CCN(C(=O)O)S(=O)(=O)c1ccc(NC(=O)c2ccccc2)cc1 | > 380 | > 380 | –
CCc1cc(-c2cccc3ccccc23)c(C#N)c(=S)[nH]1 | > 200 | 32.4 | –
CC(NCc1c(O)ccc2ccc(=O)oc12)C(=O)O (stereo not drawn) | > 200 | > 200 | –
O=C1/C(=C/c2cccc(O)c2)COc2ccccc21 | > 123 | 4.27 | –
O=C(C=Nc1ccccc1C(=O)[O-])c1cccs1.O=C(C=Nc1ccccc1C(=O)[O-])c1cccs1.[Cu+2] | – | – | inactive
N#Cc1c(NC(=O)CN2CCOCC2)c(C(=O)Nc2ccc(Cl)cc2)n2c1CCC2 | > 50.1 | > 50.1 | –
COc1ccc(CCNC(=S)/N=C\C2=C(O)c3ccccc3C2=O)cc1OC | > 200 | > 200 | –
CC(C)CNC(=O)Cn1c2c(c3ccccc31)CCCC2 | > 200 | 81.3 | –
COc1ccc(Cc2cc(Cc3ccc(OC)cc3)cc(Cc3ccc(OC)cc3)c2)cc1 | > 100 | > 100 | –
COc1cc(N=Nc2ccccc2)ccc1NCS(=O)(=O)O | > 200 | 174 | –
Nc1cccc2c1-c1c(cccc1[N+](=O)[O-])C2=O | – | – | inactive
NC(CCCCCP(=O)(c1ccccc1)C1C=CC=CC1)C(=O)O (stereo not drawn) | > 200 | > 200 | –

SMILES | EC50 [µM] | IC50 [µM] | outcome
Cc1ccc(CCNC(=S)SCC(NC(=O)CCC(N)C(=O)O)C(=O)NCC(=O)O)cc1 (stereo not drawn) | > 102 | 8.71 | –
O=c1ccc2nc3cc(Br)ccc3sc-2c1 | > 24.5 | > 24.5 | –
O=C1C(=O)C(c2ccccc2)Oc2ccccc21 (stereo not drawn) | > 200 | 25.1 | –
CCCCC[C@@H]1CCCC2C1CCC(CCCCCO)N2C(=O)OCC(Cl)(Cl)Cl (stereo partly drawn) | – | – | inactive
C=C1CCC2(C)[C@H](C)CC[C@H](O)C2(CCC=C(C)C)[C@@H]1Cc1c[nH]c2ccccc12 (stereo partly drawn) | – | – | inactive
O=C(O)c1cc2cc3c(cc2c2ccccc12)OCO3 | > 490 | 282 | –
N/C(=N/N=C/c1ccc2ccccc2n1)NO | – | – | inactive
O=C(OCC1CC(C2(O)CCCCC2)C(=O)O1)c1ccccc1 (stereo not drawn) | > 200 | > 200 | –
O=C(N=C1SCCN1C(=O)C(C(F)(F)F)C(F)(F)F)C(C(F)(F)F)C(F)(F)F | > 200 | > 200 | –
Cc1csc(NNC(=O)Nc2ccccc2)n1 | > 129 | 43.7 | –
O=C(O)CCCc1ccc2c(c1)C(C(=O)O)CC2 (stereo not drawn) | > 200 | > 200 | –
CON(C)c1nc(Cl)nc(Cl)n1 | > 200 | > 200 | –
Cc1cccc(/C=N/NC(=S)Nc2ccc(Cl)cc2)n1 | > 200 | 3.16 | –
COC(=O)C(Br)C1CCc2ccccc21 (stereo not drawn) | > 251 | 141 | –
Cc1oc(NC(=O)C(=O)O)c(C#N)c1C | > 200 | > 200 | –
CSc1ncnc2nc(C(O)c3ccccc3)[nH]c12 (stereo not drawn) | – | – | inactive
CC(C)/C(Cl)=N\OC(=O)Nc1ccc(C#N)cc1 | > 200 | 4.27 | –
COC(=O)c1ccccc1C1CN=NC12Cc1ccc(C)c(C)c1C2=O (stereo not drawn) | > 200 | 37.2 | –
CCN(CC)CCOc1cccc(NC(=O)CN(CC)CC)c1 | > 200 | 81.3 | –
C=CC(C)(C)c1cccc2[nH]c3c(c12)CC1CCC2(O)C4=CC(=O)C5OC4(CCC2(C)[C@@]31C)OC5(C)C (stereo partly drawn) | – | – | inactive
O=C(CNc1ccc(Cl)cc1)Nn1c(-c2ccccc2)nc2ccccc2c1=O | > 200 | 5.13 | –
C[n+]1c(-c2ccc(/C=N/NC(=O)c3cc(O)c(C(=O)N/N=C/c4ccc(-c5cn6ccccc6[n+]5C)cc4)cc3O)cc2)cn2ccccc21 | > 6.31 | > 6.31 | –

SMILES | EC50 [µM] | IC50 [µM] | outcome
C/C(=N\NC(N)=S)c1sc(-n2nc(-c3ccccc3)cc2-c2ccccc2)nc1C | > 16.6 | > 16.6 | –
Cc1ccc(/C=C/c2nnc(N/N=C/c3ccc4c(c3)OCO4)[nH]c2=O)cc1 | > 200 | 95.5 | –
O=C1OC(=O)C2C1C1(c3ccccc3)C(=O)C2(c2ccccc2)C(c2ccccc2)=C1c1ccccc1 (stereo not drawn) | – | – | inactive
CCCCN1C(=O)C(=O)N(c2ccccc2C(F)(F)F)C1=O | > 200 | 158 | –
CC1=NN(C(=O)c2ccccc2O)C(=O)/C1=C/c1ccc(O)cc1 | > 30.9 | 0.0589 | –
CCOP(=O)(OCC)/C(=C/n1c(=S)[nH]c2ccc([N+](=O)[O-])cc21)C(=O)OC | > 200 | 115 | –
CC(=O)OCC1OC(n2ccc(-n3cncn3)nc2=O)CC1N=[N+]=[N-] (stereo not drawn) | 87.1 | > 200 | –
Cc1nnc(NS(=O)(=O)c2ccc(N=Nc3c(N)n(C)c(=O)n(C)c3=O)cc2)s1 | – | – | inactive
Clc1ccc(/C=N/Nc2nnc3c4ccccc4c4ncccc4c3n2)cc1 | > 50.1 | > 50.1 | –
COc1cc(C(=O)NO)ccc1O | > 8510 | 447 | –
CCCCCC=C(c1cc(Cl)c(OC)c(C(=O)NO)c1)c1cc(Cl)c(OC)c(C(=O)NO)c1 | > 200 | 1.95 | –
CC([C@H]1CCC2[C@@H]3CCC4C(=O)C(NC(=O)c5ccccc5)=CC[C@]4(C)C3CC[C@@]21C)N(C)C (stereo partly drawn) | > 4.37 | 1.32 | –
CCN(CC)CCn1c2cc3c(cc2c(=O)c2cccnc21)OCO3 | > 200 | 7.94 | –
N#Cc1c(=O)c2ccccc2n2c1[nH]c1ccccc12 | > 200 | 77.6 | –
N#CC1CC(c2cccs2)Nc2ccccc2N1 (stereo not drawn) | > 141 | 46.8 | –
COc1ccccc1NC(=O)/C(=C/C1CC(=O)NC1=S)C(C)=O (stereo not drawn) | > 200 | > 200 | –
Cn1c(NN)nc2ccccc2c1=O | – | – | inactive
Cc1c(/C=N/N(C)C)oc2c1cc(O)c1ncccc12 | > 37.2 | 2.51 | –
CC(=O)NC(CC(C)C(C)=O)C(=O)O (stereo not drawn) | > 200 | > 200 | –
NCCS(=O)(=O)O | > 200 | > 200 | –
Cc1ccnc(NC(=S)Nc2ccc([N+](=O)[O-])cc2)c1 | > 200 | > 200 | –
C[C@@H]1[C@H](C)N1CC(O)Cn1ccnc1[N+](=O)[O-] (stereo partly drawn) | > 200 | > 200 | –

SMILES | EC50 [µM] | IC50 [µM] | outcome
O=S(=O)(c1ccccc1)n1cnc(CCc2ccccc2)n1 | > 794 | > 794 | –
O=C1SS(=O)c2ccccc21 (stereo not drawn) | > 200 | 95.5 | –
O=C(NCc1ccccc1O)c1ccc(O)cc1O | > 200 | 110 | –
C/C=C(/CCC1NCCc2c1[nH]c1ccccc21)[Si](C)(C)C (stereo not drawn) | – | – | inactive
CC(C)c1cc2c3c(c1O)OC(=O)C[C@@]3(C)C1[C@@H](OC(=O)C1(C)C)C2=O (stereo partly drawn) | > 501 | 295 | –
CCc1oc2ccccc2c1C(=O)c1cc(Br)c(O)c(Br)c1 | > 200 | 34.7 | –
CC(C)CC(N)C(=O)NC(Cc1ccc(O)cc1)C(=O)NC(CCC(=O)O)C(=O)N1CCCC1C(=O)NC(CO)C(=O)NC(Cc1ccc(O)cc1)C(=O)NC(C)C(=O)N1CCCC1C(=O)NC(CC(N)=O)C(=O)NC(Cc1cnc[nH]1)C(=O)NC(Cc1ccccc1)C(=O)O (stereo not drawn) (H-LYEPSYAPNHF-OH; configuration not given here) | – | – | inactive
c1csc(-c2ccc(-c3ccsc3)s2)c1 | > 200 | > 200 | –
Cc1cn(C2CC([Se]c3ccccc3)C(CO)O2)c(=O)[nH]c1=O (stereo not drawn) | > 200 | 95.5 | –
COc1ccc(C2CC(=O)c3cc(OC)ccc3O2)cc1 (stereo not drawn) | > 200 | > 200 | –
O=C1CCSc2c(cnc3ccccc23)N1 | > 200 | > 200 | –
C=C1C2CC[C@H]3C4(C)CCCC(C)(C(=O)O)[C@H]4CCC3(C2)[C@@H]1OC(C)=O (stereo partly drawn) | > 105 | 77.6 | –
O=C(O)c1cc2c(cc1CC(Cc1ccccc1)C(=O)O)CCC2 (stereo not drawn) | – | – | inactive
Cc1cc(NS(=O)(=O)c2ccc(N)cc2)sn1 | > 200 | > 200 | –
CCCCCCCCCc1cc(=O)c2ccc(O)cc2o1 | > 1.91 | > 1.91 | –
Cn1c(=O)n2n(c1=O)[C@@H](c1ccccc1)[C@H]2c1ccccc1 | > 200 | 91.2 | –
Cc1nnc(N=Nc2c(O)[nH]c3ccccc23)n1N | > 70.8 | 58.9 | –
CC(C)N(C(=O)C12C3C4C5(C#N)C3C1(I)C5C42I)C(C)C (stereo not drawn) | > 14.1 | > 14.1 | –
CCCC(=N\N=C(N)N)/C(C)=N/N=C(N)N | > 79.4 | > 79.4 | –
Clc1ccc2sc(-n3ccc4ccccc43)nc2c1 | > 200 | 170 | –
CC1=C2[C@H](c3ccccc3)C3C=CC2(c2ccccc23)N(C(=O)C(c2ccccc2)c2ccccc2)C1=O (stereo partly drawn) | > 1.51 | > 1.51 | –
O=C(O)c1ccccc1-c1c2ccc(=O)c(Cl)c-2oc2c(Cl)c(O)ccc12 | 17.8 | 56.2 | –
